# Source: the METLIN SMRT retention time set (Domingo-Almenara et al. 2019)
# Test: gradient 5% acetonitrile 3 min, to 50% in 2 min, to 85% in 15 min, held 3 min, 100 µL/min
# Settings: column: Zorbax Extend-C18 2.1 x 50 mm; eluents: water / acetonitrile, 0.1% formic acid
# Procedure, shortened: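 Values are retention times taken from adduct peaks that software picked and an analyst inspected. The pure standards were run as mixtures of ~100 molecules on HPLC linked to a quadrupole time-of-flight mass spectrometer, in positive and negative ionization mode. A Zorbax Extend-C18 column (2.1 × 50 mm, 1.8 μm) was used at 100 μL/min with water and acetonitrile, each including 0.1% formic acid.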
row,RP-LC retention time,Structure (SMILES)
1,726 s,COCCNC(=O)Cn1nc2cc(C)nc(-c3ccc(C(F)(F)F)cc3)n2c1=O
2,814 s,CCN(C(=O)C1CCCN1S(=O)(=O)c1cc2c(cc1C)NC(=O)C(C)O2)c1ccccc1 (stereo unspecified)
3,620 s,Cc1ccccc1C(=O)N1C[C@@H](F)C[C@H]1C(=O)N1CCOCC1
4,642 s,O=C(Cn1cnc2ccccc2c1=O)N[C@H](C(=O)O)c1ccccc1
5,628 s,CC(C)OCCCNC(=O)CC1=C2CCCCC2NC1=O (stereo unspecified)
6,1220 s,O=c1c2cc(-c3ccc(F)cc3)nn2cnn1Cc1nc(-c2ccc3c(c2)OCO3)no1
7,961 s,CCCNC(=O)c1cnn(-c2cc(-c3nc(C(C)(C)C)no3)ccn2)c1C
8,620 s,Cc1ccc2c(c1)N(S(C)(=O)=O)CC(C)O2 (stereo unspecified)
9,614 s,CCCCN1CCN(C(=O)c2cc(CC)n3nc(-c4ccccn4)cc3n2)CC1
10,683 s,COC(=O)c1cnc(N2CCN(C3CCCCC3)CC2)c2ccccc12
11,839 s,O=C(Cn1c(=O)c2cc(-c3cccs3)nn2c2ncccc21)Nc1ccccc1F
12,1300 s,Cc1cccc(-c2noc(C3CCCN3S(=O)(=O)c3ccc(Cl)cc3C)n2)c1 (stereo unspecified)
13,923 s,O=C(Nc1ccc2oc(-c3ccccc3)nc2c1)C1CCN(c2cnn(Cc3ccccc3)c(=O)c2)C1 (stereo unspecified)
14,880 s,CCc1ccc(NC(=O)Nc2cnn(-c3ncc(N4CCCC4)cn3)c2)cc1
15,681 s,CCS(=O)(=O)N1CCC(c2noc(COCCOC)n2)CC1
16,716 s,CCNC(=O)C1CCCN(c2nc3ncn(CC(=O)Nc4cc(C)cc(C)c4)c(=O)c3s2)C1 (stereo unspecified)
17,815 s,COC(=O)CNC(=O)N1c2ccccc2CC1c1nc(C2CC2)no1 (stereo unspecified)
18,787 s,COC(=O)c1ccccc1NCCO
19,597 s,Cn1c(CN2CCN(C(=O)c3cccs3)CC2)nc2cc(C(=O)N3CCCC3)ccc21
20,972 s,O=C(Nc1cccc(Cl)c1F)c1cnc(-c2ccc(F)cc2)nc1-c1ccncc1
21,715 s,CC1=C(C(=O)N2CCOCC2)C(c2cc(Br)ccc2F)C2=C(CC(C)(C)CC2=O)N1 (stereo unspecified)
22,712 s,O=C(Nc1ccc2c(c1)CN(S(=O)(=O)c1cccnc1)CCO2)C1CC1

row,RP-LC retention time,Structure (SMILES)
1,788 s,CCc1nc(OCC(=O)Nc2ccc(OC)cc2OC)c2ccccc2n1
2,609 s,O=C(c1cc(-c2ccccc2)n[nH]1)N1CCN(c2cc(-c3ccccc3)ncn2)CC1
3,837 s,CN(CC(=O)N1CCN(c2ccc(Cl)cc2)CC1)S(=O)(=O)c1c[nH]c(C(=O)N2CCCC2)c1
4,627 s,N[C@H]1CCN(O)C1=O
5,688 s,Cc1cccc2c(C(=O)NCC(C)C)c3c(nc12)CCC3
6,788 s,Cc1ccc(C(=O)Nc2cccc(C(F)(F)F)c2)cc1Nc1nc(-c2cccnc2)nc2c1cnn2C
7,671 s,CCN(CC)C(=O)c1ccc(-c2nc3cc(NS(=O)(=O)c4ccccc4)ccc3n2C)cc1
8,862 s,CCOc1ccccc1-n1nnc(C(=O)OC)c1C(=O)OC
9,612 s,CCOc1ccccc1NC(=O)CN1CCN(c2nccn2-c2ccc(C)cc2)CC1
10,903 s,COc1ccc(S(=O)(=O)N2CCCN(c3ccc(=O)n(-c4ccc(C)c(C)c4)n3)CC2)cc1
11,825 s,CCOC(=O)c1c(C)oc2nc(C)nc(NCCCN(CC)c3ccccc3)c12
12,1090 s,Cc1nn(CC(=O)N2CCCCCC2)c(=O)c2c(-n3cccc3)n(-c3ccc(Cl)cc3)nc12
13,1140 s,Cc1ccc(N2C(=O)C3N=NN(Cc4nc(-c5ccc(OC(C)C)cc5)no4)C3C2=O)cc1F (stereo unspecified)
14,676 s,Cc1nc(-c2cccc(NC(=O)c3ccc(N4CCCC4)nn3)c2)cs1
15,955 s,CC1(C(=O)NC2CCCC2)Cn2cnc(C(=O)NCc3cccc(Cl)c3)c2C(=O)N1C1CC1 (stereo unspecified)
16,907 s,CCC(C)NC(=O)c1cn(-c2cc(-c3nc(C(C)C)no3)ccn2)cn1 (stereo unspecified)
17,1100 s,Cc1ccc(Sc2nccnc2N2CCCC(C(=O)NCc3ccc(F)cc3)C2)cc1 (stereo unspecified)
18,883 s,Cc1ccccc1N1CCN(C(=O)c2cc(C)n3nccc3n2)CC1
19,1070 s,CCc1ccccc1S(=O)(=O)N1C[C@@H]2C(=O)N(C(CC)c3cccs3)C(=O)[C@@H]2C1 (stereo partly specified)
20,552 s,O=C(Cn1ncccc1=O)N1CCN(c2ccc(-c3ccco3)nn2)CC1
21,753 s,O=C(Cn1nc2nc(Nc3ccc(F)cc3)ccn2c1=O)NCc1ccc(F)cc1Cl
22,595 s,O=C(O)CNS(=O)(=O)c1cccc2nsnc12

row,RP-LC retention time,Structure (SMILES)
1,807 s,COc1ccc(C)cc1NC(=O)N1CCC2(CC1)NC(=O)c1ccccc1N2C
2,697 s,CCN1CCN(c2nc(F)c(F)c(S(=O)(=O)CCNc3cccc4ccccc34)c2F)CC1
3,564 s,COc1ccc(CCS(=O)(=O)NCC2CCN(Cc3cccs3)CC2)cc1
4,776 s,Cc1ccc(NC(=O)N2CCC(n3c(-c4ccco4)nc4cccnc43)C2)cc1 (stereo unspecified)
5,1150 s,CCOC(=O)c1cc(C)nc2c1c(=O)n(Cc1cccc(C(F)(F)F)c1)c(=O)n2C
6,1150 s,Cc1ccccc1OCC(=O)N1CCCC1c1nc(-c2cccc(Cl)c2)no1 (stereo unspecified)
7,824 s,COc1ccc(N2CC(c3nc(-c4ccc5c(c4)OCO5)no3)CC2=O)cc1OC (stereo unspecified)
8,1090 s,COc1ccc(NC(=O)c2cc3c(=O)n(CC(C)C)c4ccccc4n3n2)c(C)c1
9,922 s,Cc1cc(C)cc(NC(=O)N2CCCC2c2nc(-c3ccccc3)no2)c1 (stereo unspecified)
10,621 s,CCCNC(=O)C1CCN(c2ccc(SCC(=O)Nc3ccccc3OCC)nn2)CC1
11,537 s,O=C(NCCc1ccncc1)C1CCCN(c2nnc3ccc(C(F)(F)F)cn23)C1 (stereo unspecified)
12,693 s,CCCNc1cc(N2CCC(CCC(=O)NCCC(C)C)CC2)ncn1
13,788 s,COc1ccc(C(=O)n2nc(C)cc2C)cc1OC
14,854 s,CCc1nc2c(=O)n(CC(=O)N3CCN(c4ccc(Cl)cc4)CC3)nc(C)c2s1
15,1230 s,O=C(CN1CCCCC1c1nc(-c2cccc(F)c2)no1)Nc1ccccc1F (stereo unspecified)
16,660 s,CCNC(=O)C1CCc2sc(C(=O)N(CC)CC)cc2C1 (stereo unspecified)
17,612 s,COc1cc(OC)c(NC(=O)NCC2(N3CCOCC3)CCOC2)cc1Cl (stereo unspecified)
18,590 s,O=C(Cn1cnc2ccccc2c1=O)N1CCOCC1
19,745 s,CCn1cc(CCNS(=O)(=O)c2ccccc2F)c2cccnc21
20,588 s,COc1ccc(Nc2c(C(=O)N3CCCCC3)cnc3nc(C)ccc23)cc1OC
21,557 s,Cc1nc2cc(N3CCCC(C(=O)NCCN4CCOCC4)C3)cnc2nc1C (stereo unspecified)

row,Structure (SMILES),RP-LC retention time
1,Cc1nnc2n1-c1sccc1C(c1ccccc1)=NC2,712 s
